Source: PMC5238433 (Scientific Reports, 2017)
“Also recorded” adds a separate entry of the source. No end group written: not given here.

Key:
[1] = system: angiotensin-converting enzyme 2 (ACE2); details: cited from earlier work
Description: The apelin receptor (APJ) is a member of the family A of G-protein-coupled receptors (GPCRs) and is involved in range of physiological and pathological functions including fluid homeostasis, anxiety, and depression, as well as cardiovascular and metabolic disorders. APJ was first identified as an orphan GPCR with closest identity to the angiotensin II (Ang II) receptor. In 1998, the peptide apelin was isolated from bovine stomach extracts as the endogenous ligand of APJ.

[2] = system: human α-adrenergic 2 A receptors; details: CHO-K1 cells expressing human α-adrenergic 2 A receptors (Gαi coupled), 0.15 to 333 nM, xCELLigence; ref not given ("Recent studies"); cited from earlier work
Description: Recent studies used the xCELLigence system to monitor activation of endogenous GPCRs. […] Here, we also ...

APJ homodimer = experiment: MALDI-TOF MS of immunoprecipitated APJ complex after treatment with HIV TAT-TMD interference peptides; assay type: binding, human; details: peptide 4 μM, 60 min, 37 °C
Description: TMDs are important for the formation of head-to-head interfaces in class A GPCR dimers. To identify dimerization interfaces in the seven TMDs of APJ, the effects of cell-penetrating interference peptides (containing the sequence of the hydrophobic transmembrane helices) on APJ homodimerization were examined by MS.
Figure 5 The effects of interference peptides on apelin receptor (APJ) homodimerization as measured by matrix assisted laser desorption […] time-of-flight (MALDI-TOF) mass spectrometry.
The identity of the TMD peptide sequences was analyzed with liquid chromatography (LC)-MS.
MS was performed to identity APJ dimer interfaces in samples treated with TMD peptides. Cells were transfected with APJ and, 48 h later, treated with or without the indicated HIV TAT-TMD fused peptides (4 μM) for 60 min at 37 °C. Extracted proteins were immunoprecipitated using an anti-APJ antibody. Protein A/G PLUS-agarose beads were incubated with proteins for 2 h and washed four times with lysis buffer. The APJ complex was eluted from beads as described previously. Then, the endogenous APJ complex was analyzed with an AXIMA matrix-assisted laser desorption/ionization time-of-flight (MALDI-TOF) system (Shimazdu) in linear positive mode. The mass range was 4–10 kDa and the matrix was Sinapic Acid (SA), 10 mg/ml (50% acetonitrile (ACN), 50% H2O, 0.1% […] (TFA)). The results were calibrated with a Shimadzu MALDI calibration kit (Laser BioLabs).

[3] = system: APJ dimer (APJ-Rluc / APJ-EGFP); experiment: BRET, effect of interference peptides on APJ homodimers; assay type: cell-based, human
Description: Figure 7 The effect of interference peptides on apelin receptor (APJ) dimers. […] BRET[1] was detected as described above.

[4] = system: human umbilical vein endothelial cells (HUVECs); experiment: xCELLigence RTCA, apelin-13-induced cellular response (cell index) with or without interference peptide; assay type: cell-based; details: TMD1 4 μM with apelin-13 10 μM, 0.1 μM or 1 nM; average of quadruplicates
Description: All curves were plotted as the average of quadruplicate treatments, with error bars shown as SEM.
A background step (step 1) was performed before other experimental steps. The background step was performed with each well of the E-Plate 16 containing only culture media (100 μl/well) for 30 min at 37 °C, prior to the addition of 10000 HUVECs per well (100 μl/well). […] The schedule settings were as follows (RTCA Software 2.0): […]

CHO-K1 cells = system: CHO-K1 cells; design: method as in not given ("Recent studies"); details: serum-deprived CHO-K1 cells, 5 pM to 5 μM, xCELLigence; ref not given ("Recent studies"); cited from earlier work
[5] = system: APJ homodimers (APJ-Rluc / APJ-EGFP); experiment: BRET, effect of agonist/antagonist treatment on APJ homodimerization; assay type: cell-based, human; details: CHO cells co-expressing APJ-Rluc and APJ-EGFP (1:1); concentration not given; four independent experiments in triplicate
Description: We further assessed APJ interactions by co-immunoprecipitation (Co-IP), BRET[1], and Förster resonance energy transfer (FRET). […] BRET studies were performed to confirm APJ homodimerization.
Figure 2 Assessment of apelin receptor (APJ) dimerization using co-immunoprecipitation (Co-IP) and bioluminescence resonance energy transfer (BRET) assays. (A) Assessment of APJ homodimerization with Co-IP. Chinese hamster ovary (CHO) cells were either not transfected (mock) or transfected with HA-APJ, Myc-APJ, or both (co-transfection). HA-APJ and Myc-APJ were also mixed (mix). Immunoprecipitated samples were resolved by SDS-PAGE and immunoblotted with an anti-Myc antibody (upper panel). […] (B) Assessment of APJ homodimerization with BRET[1]. (C) BRET saturation curves. (D) Assessment of effects of agonist-treatment on dimerization by BRET[1]. For BRET, four independent experiments were performed with triplicate samples and the results were expressed as the mean ± SEM of four experiments ([…] versus control group; NS, not significant versus unstimulated cells).
To monitor constitutive APJ interactions, CHO cells were transfected with APJ-Rluc and APJ-EGFP plasmids at a ratio of 1:1, 1:2, 1:3, 1:4, 1:5, and 1:6 to express a constant amount of donor-labeled protein with increasing amounts of acceptor-labeled protein. At 24 h post-transfection, cells were trypsinized and plated on a 96 well microplate for 24 h in HEPES-buffered phenol red-free medium (Invitrogen, Life Technologies). Coelenterazine h (5 μM; Promega) was added for BRET measurements using a Tristar LB941 plate reader (Berthold) with an Rluc filter (400–475 nm) and a EGFP filter (500–550 nm). To monitor the induced interactions of APJ, BRET signals were measured as described above, with slight modifications. […] To measure the effects of interference peptides on APJ dimers, CHO cells were co-transfected with APJ-Rluc and APJ-EGFP (1:3) and incubated with interference peptides corresponding to TMD1, TMD2, TMD3, TMD4, TMD5, TMD6, and TMD7 at 37 °C (4 μM), and BRET[1] detected as described above.

[6] = system: APJ oligomers (APJ-Rluc, APJ-VN173, APJ-VC155); experiment: BiFC-BRET, effect of agonist/antagonist treatment on APJ oligomerization; assay type: cell-based, human; details: CHO cells co-expressing APJ-Rluc, concentration not given, four independent experiments in triplicate
Description: Additionally, BiFC-BRET assays were performed to detect APJ oligomerization in living cells. Two non-fluorescent fragments (pCE-BiFC-VN173 and pCE-BiFC-VC155) of Venus fluorescent protein were separately fused to APJ (APJ-VN173 and APJ-VC155) (Fig. 4A). CHO cells were then co-transfected with APJ-Rluc, APJ-VN173, and APJ-VC155 and observed with TIRFM.
Figure 4 Assessment of apelin receptor (APJ) oligomerization with bioluminescence resonance energy transfer - bimolecular fluorescence complementation (BiFC-BRET). (A) Principle of BiFC-BRET. The assay examines the formation of functional Venus by the complementation of protein fragments fused to APJ. Association of APJ enables formation of a bimolecular fluorescent complex. If all three tagged APJ proteins interact, BRET can occur. (B) TIRFM detection of APJ dimers (yellow particles) after BiFC. (C) Assessment of APJ oligomerization with BiFC-BRET. (D) Assessment of agonist-induced oligomerization.

## apelin
[1]
  hydrolysis by ACE2: high catalytic efficiency

## Brc1c(NC2=NCCN2)ccc2nccnc12 [UK14,304]
[2]
  cell index response: induces a dose-dependent increase in CI

## PAIYMLVFLLGTTGNGLVLWTVFYGRKKRRQRRR [TMD1, HIV TAT-fused interference peptide derived from human APJ transmembrane domain 1]
APJ homodimer; cells transfected with APJ, anti-APJ immunoprecipitation, MALDI-TOF linear positive mode, mass range 4–10 kDa, sinapic acid
  species detected by MALDI-TOF MS / effect of peptide on APJ homodimerization: TMD1 dimers, TMD1 tetramers, APJ, [APJ + TMD1], APJ dimers, and [APJ + TMD1] dimers were detected
APJ homodimer; MALDI-TOF
  binding to APJ (peptides encoding TMDs, MS): can bind to APJ
[3]; CHO cells, APJ-Rluc:APJ-EGFP 1:3, peptide 4 μM, 37 °C, four independent experiments in triplicate
  effect on APJ dimer BRET signals: significantly reduced APJ dimer BRET signals
[3]; CHO cells, APJ-Rluc:APJ-EGFP 1:3, peptide 4 μM, 37 °C, four independent experiments in triplicate, P < 0.01, one range for TMD1, 2, 3 and 4
  reduction of APJ dimer BRET signals: 55–75%
[3]; interference peptides 4 μM, in vitro, by BRET and MS
  disruption of APJ (homo)dimerization (statement in words): disrupted APJ dimerization; also recorded: can effectively disrupt the formation of APJ homodimers; also recorded: disrupted APJ homodimerization in vitro
[4]
  HUVEC cell index (CI), interference peptide with apelin-13: led to a decreasing trend in the CI compared to that before treatment

## calcitonin: stimulating serum-deprived CHO-K1 cells with calcitonin (CGNLSTCMLGTYTQDFNKFHTFPQTAIGVGAP; ends and bridges not checked; cysteine pairing not given here; UniProt P01258 85-116, looked up)
CHO-K1 cells
  cell index response: a transient agonist-induced increase in CI lasting up to a few hours

## apelin-17
[5]
  BRET signal versus unstimulated cells (APJ homodimer formation): not significantly different to those of unstimulated cells
[6]
  BRET ratio versus unstimulated cells (APJ oligomerization, BiFC-BRET): the same as that of unstimulated cells
